Experiment: Am80 release from alkali-treated collagen composite materials in PBS, HPLC
Format: physicochemical
Conditions: PBS pH7.4, 37° C., in one day
Method: The high-molecular-weight matrices containing the low-molecular-weight organic compound prepared in 2-1 mentioned above were dried in a desiccator and then heated in an oven at 80° C. for 10 min. These composite materials were used as samples for HPLC.
The thus produced high-molecular-weight matrices were each transferred in a 250 mL polyethylene container, and 200 mL of PBS (pH7.4) was added thereto. These were heated in an incubator at 37° C. The supernatant thereof was sampled in a time course manner, and 50 μL each was assayed by HPLC.
In the HPLC method, the Nacalai Tesque COSMOSIL Packed Column (Size: 4.6 I.D.×150 mm; Type: 5C18-AR II ATERS) was used as the column, and a 5% HOAc/CH3CN=35/65 (v/v) aqueous solution was used as the eluent. The flow rate was 1.00 mL/min, and the column temperature was 40.0° C. The detection was conducted by UV-visible spectroscopy.
The elusion amount was calculated based on a calibration curve that had been formed in advance. Three kinds of drug/PBS (pH7.4) solutions were prepared within a concentration range from 1.14 μM to 569 μM, and assayed by HPLC. The condition for this assay was the same as the above. […]
In the HPLC method, the Am80 elusion amount was calculated under the same conditions as for the above-mentioned method.

Am80 released | Structure (SMILES)
49% | CC1(C)CCC(C)(C)c2cc(NC(=O)c3ccc(C(=O)O)cc3)ccc21 [Am80, Tamibarotene]

Experiment: Composite formation of AlGltn/TSC matrix containing amino acid derivative after immersion in water
Format: physicochemical
Conditions: 100 mM amino acid derivative, 20 mM TSC, water at 4° C. for one day
Method: High-molecular-weight matrices formed from alkali-treated gelatin (AlGltn; derived from pig bone) and TSC (citric acid derivative), in which an amino acid derivative was contained, were prepared. By immersing in water, DMSO was replaced by water and the amino acid was precipitated. The behavior of the high-molecular-weight matrices after the precipitation was observed by each type and concentration of the amino acid.
400 μl of a DMSO solution containing 15 w/v % AlGltn and 10% lactic acid was added with an amino acid derivative to give 100 mM in a 2 ml tube. The mixture was agitated and degassed. 100 μl of a 10% lactic acid-containing DMSO was added with TSC at 20 mM (4.84 mg) and agitated. The solution made by addition of the amino acid derivative to the AlGltn/10% lactic acid-containing DMSO solution, agitation, and degasification, was added with the TSC/10% lactic acid-containing DMSO solution. The mixture was agitated for 30 seconds and then degassed for 30 seconds. After leaving still for one day, the resulting high-molecular-weight matrix was taken out and immersed in water at 4° C. for one day. The gel was taken out and its behavior was observed.

Composite formation | Structure (SMILES)
Absent | CC(=O)NC(Cc1c[nH]c2ccccc12)C(N)=O (stereo not shown) [AcTrpNH2]
Absent | CC(=O)N[C@@H](Cc1ccc(O)cc1)C(N)=O [AcTyrNH2]
Present | O=C(N[C@@H](Cc1ccccc1)C(=O)O)OCC1c2ccccc2-c2ccccc21 [FmocPheOH]
Present | CC(C)(C)OC[C@H](NC(=O)OCC1c2ccccc2-c2ccccc21)C(=O)O [FmocSer(tBu)OH]

More lines, now with the values behind:

Structure (SMILES) | Composite formation
CC[C@H](C)[C@H](NC(=O)OCC1c2ccccc2-c2ccccc21)C(=O)O [FmocIleOH] | Present
O=C(N[C@@H](Cc1c[nH]c2ccccc12)C(=O)O)OCC1c2ccccc2-c2ccccc21 [FmocTrpOH] | Present
